What follows are molecules tested against recombinant human SYK (GST-hSYK fusion protein) (Homo sapiens, UniProt P43405) (assay: biochemical). Settings: rhSYK Activity, Table 10, Formula A.
Source text: Homogeneous Time-Resolved Fluorescence (HTRF) Assay for the Recombinant Human SYK Enzyme:

| IC50 [nM] | SMILES |
| --- | --- |
| < 100 | COCc1cc(Nc2nccc(C(F)(F)F)n2)cc(-c2cnc(C3(O)CCNC(=O)CC3)s2)c1 (stereo not drawn) [Example 10A-4] |

Same assay, conditions: rhSYK Activity, Table 10, Formula B

| IC50 [nM] | SMILES |
| --- | --- |
| < 100 | Cc1cc(Nc2nccc(C(F)(F)F)n2)cc(-c2cnc(C3=CC(=O)NCC3)s2)c1 [Example 10B-1] |

Same assay, conditions: rhSYK Activity, Table 15

| IC50 [nM] | SMILES |
| --- | --- |
| < 100 | OC1(c2ncc(-c3cccc(Nc4nccc(C(F)(F)F)n4)c3)s2)CCCC1 [Example 15-2] |
| < 100 | Cc1cc(Nc2nccc(C(F)(F)F)n2)cc(-c2cnc(C(C)(O)C(F)(F)F)s2)c1 (stereo not drawn) [Example 15-4] |
| < 100 | CC(O)c1ncc(-c2cccc(Nc3nccc(C(F)(F)F)n3)c2)s1 (stereo not drawn) [Example 15-5, 1-[5-(3-{[4-(Trifluoromethyl)pyrimidin-2-yl]amino}phenyl)-1,3-thiazol-2-yl]ethanol] |

Same assay, conditions: rhSYK Activity, Table 21

| IC50 [nM] | SMILES |
| --- | --- |
| < 100 | FC(F)(F)c1ccnc(Nc2cccc(-c3cnc(C4CCCO4)s3)c2)n1 (stereo not drawn) [Example 21-1] |
| < 100 | CN1CCOC(c2ncc(-c3cccc(Nc4nccc(C(F)(F)F)n4)c3)s2)C1 (stereo not drawn) [Example 21-2] |
| < 100 | CS(=O)(=O)Cc1ncc(-c2cccc(Nc3nccc(C(F)(F)F)n3)c2)s1 [Example 21-3] |
| < 100 | Cn1cc(-c2ncc(-c3cccc(Nc4nccc(C(F)(F)F)n4)c3)s2)cn1 [Example 21-4] |
| < 100 | FC(F)(F)c1ccnc(Nc2cccc(-c3cnc(C4CCOC4)s3)c2)n1 (stereo not drawn) [Example 21-5] |
| < 100 | FC(F)(F)c1ccnc(Nc2cccc(-c3cnc(CN4CCOCC4)s3)c2)n1 [Example 21-6] |
| 1000 to 10000 | FC(F)(F)c1ccnc(Nc2cccc(-c3cnc(C4CCc5ccccc54)s3)c2)n1 (stereo not drawn) [Example 21-7] |
| 100 to 1000 | CCN(CC)CCC(C)(O)c1ncc(-c2cccc(Nc3nccc(C(F)(F)F)n3)c2)s1 (stereo not drawn) [Example 21-8] |
| 100 to 1000 | FC1(F)CC(c2ncc(-c3cccc(Nc4nccc(C(F)(F)F)n4)c3)s2)C1 [Example 21-9] |
| < 100 | O=C1OCCN1Cc1ncc(-c2cccc(Nc3nccc(C(F)(F)F)n3)c2)s1 [Example 21-10] |
| 100 to 1000 | COC(=O)[C@H]1CC[C@H](c2ncc(-c3cccc(Nc4nccc(C(F)(F)F)n4)c3)s2)CC1 [Example 21-11, methyl trans-4-[5-(3-{[4-(trifluoromethyl)pyrimidin-2-yl]amino}phenyl)-1,3-thiazol-2-yl]cyclohexanecarboxylate] |
| < 100 | O=C(NCCO)[C@H]1CC[C@H](c2ncc(-c3cccc(Nc4nccc(C(F)(F)F)n4)c3)s2)CC1 [Example 21-12] |
| < 100 | O=C1CC(c2ncc(-c3cccc(Nc4nccc(C(F)(F)F)n4)c3)s2)CN1 (stereo not drawn) [Example 21-14] |
| < 100 | FC(F)(F)c1ccnc(Nc2cccc(-c3cnc(C4COCCO4)s3)c2)n1 (stereo not drawn) [Example 21-15] |
| < 100 | CN1CC(c2ncc(-c3cccc(Nc4nccc(C(F)(F)F)n4)c3)s2)CCC1=O (stereo not drawn) [Example 21-17] |
| 100 to 1000 | CN1CCCCCC1c1ncc(-c2cccc(Nc3nccc(C(F)(F)F)n3)c2)s1 (stereo not drawn) [Example 21-18] |

Same assay, conditions: rhSYK Activity, Table 27

| IC50 [nM] | SMILES |
| --- | --- |
| < 100 | OC(c1ncc(-c2cc(NCC(F)(F)F)cc(Nc3nccc(C(F)(F)F)n3)c2)s1)C(F)F (stereo not drawn) [Example 27-1] |
| < 100 | CC(O)(c1ncc(-c2cc(NCC(F)(F)F)cc(Nc3nccc(C(F)(F)F)n3)c2)s1)C(F)(F)F (stereo not drawn) [Example 27-2] |

Same assay, conditions: rhSYK Activity, Table 33-A

| IC50 [nM] | SMILES |
| --- | --- |
| < 100 | Cc1cc(Nc2ncc(F)cn2)cc(-c2cnc(C3(O)CCC(C)(C(=O)O)CC3)s2)c1 (stereo not drawn) [Example 33A-3] |
| < 100 | Cc1cc(Nc2ncc(F)cn2)cc(-c2cnc([C@]3(O)CC[C@](C)(C(=O)O)CC3)s2)c1 [Example 33A-4] |
| < 100 | Cc1cc(Nc2nccc(C(F)(F)F)n2)cc(-c2cnc([C@]3(O)CC[C@H](C(=O)O)CC3)s2)c1 [Example 33A-8] |
| < 100 | Cc1cc(Nc2nccc(C(F)(F)F)n2)cc(-c2cnc(C3(O)CCC(C(=O)O)(c4ccccc4)CC3)s2)c1 (stereo not drawn) [Example 33A-9] |
| 100 to 1000 | CCOC(=O)C1(C)CCC(O)(c2ncc(-c3cc(C)cc(Nc4nccc(C(F)(F)F)n4)c3)s2)CC1 (stereo not drawn) [Example 33A-11] |
| < 100 | Cc1cc(Nc2nccc(C(F)(F)F)n2)cc(-c2cnc([C@]3(O)CC[C@](C)(C(=O)O)CC3)s2)c1 [Example 33A-12] |
| < 100 | Cc1cc(Nc2nccc(C(F)(F)F)n2)cc(-c2cnc(C3(O)CCC(C)(C(=O)O)CC3)s2)c1 (stereo not drawn) [Example 33A-13] |
| < 100 | COC(=O)C1(NC(C)=O)CCC(O)(c2ncc(-c3cc(C)cc(Nc4nccc(C(F)(F)F)n4)c3)s2)CC1 (stereo not drawn) [Example 33A-14] |
| < 100 | CC(=O)NC1(C(=O)O)CCC(O)(c2ncc(-c3cc(C)cc(Nc4nccc(C(F)(F)F)n4)c3)s2)CC1 (stereo not drawn) [Example 33A-15] |
| < 100 | Cc1cc(Nc2nccc(C(F)(F)F)n2)cc(-c2cnc([C@]3(O)CC[C@H](CC(=O)O)CC3)s2)c1 [Example 33A-16] |
| < 100 | Cc1cc(Nc2nccc(C(F)(F)F)n2)cc(-c2cnc(C3(O)CCC(CCC(=O)O)CC3)s2)c1 (stereo not drawn) [Example 33A-18] |
| < 100 | CCOC(=O)CCC1CCC(O)(c2ncc(-c3cc(C)cc(Nc4nccc(C(F)(F)F)n4)c3)s2)CC1 (stereo not drawn) [Example 33A-21] |
| < 100 | O=C(O)[C@H]1CC[C@@](O)(c2ncc(-c3cc(Cl)cc(Nc4nccc(C(F)(F)F)n4)c3)s2)CC1 [Example 33A-22] |
| < 100 | O=C(O)[C@H]1CC[C@@](O)(c2ncc(-c3cccc(Nc4nccc(C(F)(F)F)n4)c3)s2)CC1 [Example 33A-23] |
| < 100 | O=C(O)[C@H]1CC[C@](O)(c2ncc(-c3cccc(Nc4nccc(C(F)(F)F)n4)c3)s2)CC1 [Example 33A-24] |
| < 100 | CCOC(=O)[C@H]1CC[C@](O)(c2ncc(-c3cccc(Nc4nccc(C(F)(F)F)n4)c3)s2)CC1 [Example 33A-25] |
| 100 to 1000 | CCOC(=O)[C@H]1CC[C@@](O)(c2ncc(-c3cccc(Nc4nccc(C(F)(F)F)n4)c3)s2)CC1 [Example 33A-26] |
| 100 to 1000 | Cc1cc(Nc2nccc(C(C)C)n2)cc(-c2cnc([C@]3(O)CC[C@@H](C(=O)OC(C)(C)C)CC3)s2)c1 [Example 33A-29] |
| < 100 | Cc1cc(Nc2nccc(C)n2)cc(-c2cnc([C@]3(O)CC[C@@H](C(=O)O)CC3)s2)c1 [Example 33A-30] |

| IC50 [nM] | SMILES |
| --- | --- |
| < 100 | Cc1cc(Nc2nccc(C)n2)cc(-c2cnc([C@]3(O)CC[C@H](C(=O)O)CC3)s2)c1 [Example 33A-31] |
| < 100 | Cc1cc(Nc2nccc(C)n2)cc(-c2cnc(C3(O)CCC(CC(=O)O)CC3)s2)c1 (stereo not drawn) [Example 33A-32] |
| 100 to 1000 | Cc1cc(Nc2nccc(OC(C)C)n2)cc(-c2cnc([C@]3(O)CC[C@@H](C(=O)OC(C)(C)C)CC3)s2)c1 [Example 33A-34] |
| < 100 | COc1ccnc(Nc2cc(C)cc(-c3cnc(C4(O)CCC(C(=O)O)CC4)s3)c2)n1 (stereo not drawn) [Example 33A-35] |
| < 100 | COc1ccnc(Nc2cc(C)cc(-c3cnc([C@]4(O)CC[C@](C)(C(=O)O)CC4)s3)c2)n1 [Example 33A-38] |
| < 100 | COC(=O)C1CCC(O)(c2ncc(-c3cc(C)cc(Nc4ncc(F)c(C5CC5)n4)c3)s2)CC1(C)C (stereo not drawn) [Example 33A-39] |
| < 100 | Cc1cc(Nc2ncc(F)c(C3CC3)n2)cc(-c2cnc(C3(O)CCC(C(=O)O)C(C)(C)C3)s2)c1 (stereo not drawn) [Example 33A-40] |
| 100 to 1000 | Cc1cc(Nc2ncc(F)cn2)cc(-c2cnc(C3(O)CCC(C(=O)O)C(C)(C)C3)s2)c1 (stereo not drawn) [Example 33A-45] |
| < 100 | CC(C)(O)c1cc(Nc2nccc(C(F)(F)F)n2)cc(-c2cnc(C3(O)CCC(C(=O)O)C(C)(C)C3)s2)c1 (stereo not drawn) [Example 33A-48] |
| < 100 | COC(=O)C1CCC(O)(c2ncc(-c3cc(COC(C)=O)cc(Nc4nccc(C(F)(F)F)n4)c3)s2)CC1(C)C (stereo not drawn) [Example 33A-49] |
| 100 to 1000 | COC(=O)C1CCC(O)(c2ncc(-c3cc(Nc4nccc(C(F)(F)F)n4)cc(C(F)F)c3)s2)CC1(C)C (stereo not drawn) [Example 33A-55] |
| < 100 | CC1(C)CC(O)(c2ncc(-c3cc(Nc4nccc(C(F)(F)F)n4)cc(C(F)F)c3)s2)CCC1C(=O)O (stereo not drawn) [Example 33A-56] |
| < 100 | COC(=O)C1CCC(O)(c2ncc(-c3cc(Nc4nccc(C(F)(F)F)n4)cc(C4CC4)c3)s2)CC1(C)C (stereo not drawn) [Example 33A-61] |
| 100 to 1000 | COC(=O)C1CCC(O)(c2ncc(-c3cccc(Nc4nccc(C(F)(F)F)n4)c3)s2)CC1(C)C (stereo not drawn) [Example 33A-65] |
| < 100 | COC(=O)C1CCC(O)(c2ncc(-c3cc(C)cc(Nc4nccc(C)n4)c3)s2)CC1(C)C (stereo not drawn) [Example 33A-69] |
| < 100 | COC(=O)C1CCC(O)(c2ncc(-c3cc(C)cc(Nc4nccc(C5CC5)n4)c3)s2)CC1(C)C (stereo not drawn) [Example 33A-70] |
| < 100 | Cc1cc(Nc2nccc(C3CC3)n2)cc(-c2cnc(C3(O)CCC(C(=O)O)C(C)(C)C3)s2)c1 (stereo not drawn) [Example 33A-71] |
| < 100 | Cc1cc(Nc2nccc(C(F)(F)F)n2)cc(-c2cnc(C3(O)CCC(C(=O)O)C(C)(C)C3C)s2)c1 (stereo not drawn) [Example 33A-75] |

Same assay, conditions: rhSYK Activity, Table 33B

| IC50 [nM] | SMILES |
| --- | --- |
| < 100 | Cc1cc(Nc2nccc(C(F)(F)F)n2)cc(-c2cnc(C3(O)CC(C(=O)O)C3)s2)c1 (stereo not drawn) [Example 33B-1] |
| < 100 | Cc1cc(Nc2nccc(C(F)(F)F)n2)cc(-c2cnc(C3(O)CCCC(C(=O)O)C(C)(C)C3)s2)c1 (stereo not drawn) [Example 33B-11] |

Same assay, conditions: rhSYK Activity, table of Examples 16-x

| IC50 [nM] | SMILES |
| --- | --- |
| < 100 | CCCC(=O)Nc1cc(Nc2nccc(C(F)(F)F)n2)cc(-c2cnc(C3(O)CCC3)s2)c1 [Example 16-1] |
| < 100 | O=C(Nc1cc(Nc2nccc(C(F)(F)F)n2)cc(-c2cnc(C3(O)CCC3)s2)c1)C1CC1 [Example 16-2] |

Same assay, conditions: rhSYK Activity, table of Examples 19-x

| IC50 [nM] | SMILES |
| --- | --- |
| < 100 | CCNC(=O)Nc1cc(Nc2nccc(C(F)(F)F)n2)cc(-c2cnc(C3(O)CCC3)s2)c1 [Example 19-1] |
| < 100 | NC(=O)Nc1cc(Nc2nccc(C(F)(F)F)n2)cc(-c2cnc(C3(O)CCC3)s2)c1 [Example 19-2] |
| < 100 | CNC(=O)Nc1cc(Nc2nccc(C(F)(F)F)n2)cc(-c2cnc(C3(O)CCC3)s2)c1 [Example 19-3] |
| < 100 | CC(C)NC(=O)Nc1cc(Nc2nccc(C(F)(F)F)n2)cc(-c2cnc(C3(O)CCC3)s2)c1 [Example 19-4] |
| < 100 | NC(=O)NC(=O)Nc1cc(Nc2nccc(C(F)(F)F)n2)cc(-c2cnc(C3(O)CCC3)s2)c1 [Example 19-5] |

Source: patent publication US8551984B2, “Aminopyrimidines as SYK inhibitors” (Merck Sharp & Dohme Corp., priority 2009, dated 2013)
